Test results taken from patent US20120220462A1, “INDUCING AGENT FOR PLANT ROOT” (Shiseido Company, Ltd., priority 2004, published 2012).

Columns and labels:
Format in all cases: in vivo
[1] = test system: Prunus×yedoensis (cherry tree) cuttings; test: Root inducing performance test for Prunus×yedoensis cuttings (survival); settings: 10 branches, water 0%
From the text: 15 test groups including the root inducing agent of the present invention alone and combinations of the agent with other existing root inducing agents were used for a test of the root inducing performance for Prunus×yedoensis.
The existing root inducing agents used for the test were the indole inducing agent shown by the following formula (V) (hereinafter abbreviated as the “IBL”. See Japanese Patent Publication No. 10-77268A) and the commercially available root inducing agent Oxiberon (hereinafter abbreviated as “Oxy”, Made by Bayer CropScience).
Test Group (1): water, Test Group (2): KODA 10 μM, Test Group (3): KODA 100 μM, Test Group (4): Oxy, Test Group (5): IBL 50 ppm, Test Group (6): IBL 100 ppm, Test Group (7): KODA 10 μM+Oxy, Test Group (8): KODA 100 μM+Oxy, Test Group (9): KODA 10 μM+IBL 50 ppm, Test Group (10): KODA 100 μM+IBL 50 ppm, Test Group (11): KODA 10 μM+IBL 100 ppm, Test Group (12): KODA 100 μM+IBL 100 ppm, Test Group (13): KODA 10 μM+IBL 50 ppm+Oxy, Test Group (14): KODA 100 μM+IBL 50 ppm+Oxy, Test Group (15): KODA 100 μM+IBL 100 ppm+Oxy.
Branches of Prunus×yedoensis used for the test were purchased from Sumitomo Forestry Landscaping Co., Ltd. These were cut to lengths of 5 to 8 cm or so from the tips and transplanted into mixed soil in trays composed of red gravel and vermiculite blended in a 7:3 ratio. At this time, 10 branches were used for each test group. […]

[2] = test system: Hydrangea (variety name unknown) second node parts; test: Evaluation Test 1: root inducing performance on cut second node parts of Hydrangea, sprayed, on laboratory dishes; settings: 25° C. continuous light, 20 days, five specimens, water group 1.1
Experimental: The second node parts of Hydrangea (variety name unknown) were cut out in August and placed on laboratory dishes, on which filter paper was laid.
Aqueous solutions of the specific ketol fatty acid (Ia) (concentrations 100 μM and 200 μM) were prepared and sprayed by sprayers on said cut Hydrangea, which were then allowed to stand covered for 2 hours. Note that the control group was sprayed with pure water and allowed to stand in the same way as the specific ketol fatty acid (Ia). Thereafter, water was added and the resultant product allowed to stand at 25° C. under continuous light for 20 days.
The average number of roots grown were counted for five specimens in each group, whereby the average for the water treatment group was 1.1, the specific ketol fatty acid (Ia) 100 μM group was 3.2, and the 200 μM group 3.1.

[3] = test system: Hypericum chinense cuttings; test: Root inducing performance test for Hypericum chinense cuttings
Experimental: In this Example 3, in the same way as in Example 2, the specific ketol fatty acid (Ia) was used to test the root inducing performance for Hypericum chinense.
The compositions of the root inducing agents and the root inducing test procedure used in the test groups were the same as in Example 2. As a result of the tests, it was learned that there was 100% survival of the cuttings of Hypericum chinense in the case of use of the root inducing agent (10 μM) and IBL (50 ppm).
Note that the asterisks at the tops of the bar graphs of FIG. 1 indicate the rate of risk in measurement of the significant difference. One indicates a rate of risk of 5% or less, two a rate of risk of 1% or less, and three a rate of risk of 0.5% or less.

[4] = test system: Paraserianthes falcataria Becker cuttings; test: Root inducing performance test for Paraserianthes falcataria Becker cuttings; settings: Oxiberon 0, after two months
From the text: Paraserianthes falcataria Becker useful as a material for producing plywood is a tropical plant, but like other trees, cannot be transplanted by cutting as the trees age. The inventors tried transplanting Paraserianthes falcataria Becker, considered impossible to transplant by cuttings, using KODA and the existing root inducing agent Oxiberon (made by Bayer CropScience). For the cultivation soil, they used red gravel granules.

[5] = test system: Hydrangea (variety name unknown) branches including dormant buds; test: Evaluation Test 2: root inducing performance on Hydrangea branch cuttings including dormant buds, in soil; settings: for Weight with soil attached / No. of roots grown/specimen: one month at 25° C.; for Weight with soil attached: water treatment 1.5; for No. of roots grown/specimen: water treatment 2.1
Experimental: Branches of Hydrangea (variety name unknown) including dormant buds were cut to 5 cm or so lengths in December and were transplanted into trays filled with soil composed of red gravel and vermiculite (7:3). Water or a specific ketol fatty acid (Ia) (10 μM, 100 μM) was sprayed, the specimens were then cultured in a 25° C. biochamber (12 hour bright/dark cycle) for one month. The weights in the state with the soil attached, when pulling the cuttings from the soil and the number of roots grown were measured. Note that an increase in the weight with the soil attached accompanies improvement of the soil holding rate accompanying development of fibrous roots and the proliferation of leaf buds.

Structure (SMILES): CC/C=C\C/C=C\CC(=O)C(O)CCCCCCCC(=O)O (centres unmarked) [specific ketol fatty acid (Ia), 9-hydroxy-10-oxo-12(Z),15(Z)-octadecadienoic acid]
- number of cuttings surviving seven weeks after the start of the test ([1]; Test Group (2): KODA 10 μM): 10%
- number of cuttings surviving seven weeks after the start of the test ([1]; Test Group (3): KODA 100 μM): 10%
- average number of roots grown ([2]; 100 μM aqueous solution sprayed): 3.2
- average number of roots grown ([2]; 200 μM aqueous solution sprayed): 3.1
- amount of root inducing compared with the water-treated group (FIG. 1) ([3]; Test Group (2): KODA 10 μM): clearly increased
- amount of root inducing compared with the water-treated group (FIG. 1) ([3]; Test Group (3): KODA 100 μM): clearly increased
- Maximum root length ([4]; KODA 10 (μm)): 27.3 mm
- Root dried weight ([4]; KODA 10 (μm)): 1.8 mg
- Root Inducing rate ([4]; KODA 10 (μm), sprayed): 44%
- Maximum root length ([4]; KODA 100 (μm)): 5.3 mm
- Root Inducing rate ([4]; KODA 100 (μm)): 11%
- Root dried weight ([4]; KODA 100 (μm)): 2.9 mg
- Weight with soil attached ([5]; 10 μM sprayed): 6.8 g/specimen
- No. of roots grown/specimen ([5]; 10 μM sprayed): 5.3
- development of leaf buds ([5]; 10 μM, 100 μM sprayed, one month, read from Table II results): promotes development of leaf buds
- Weight with soil attached ([5]; 100 μM sprayed): 4.4 g/specimen
- No. of roots grown/specimen ([5]; 100 μM sprayed): 6.5
